Values quoted from earlier work as cited in patent EP2374448A1, “Oral film formulation” (Labtec GmbH, priority 2010, dated 2011).
Where two headings read alike, the source gives them in different places.

[1] = oral administration, overall range

Tmax after oral administration [1] | Compound | other results
0.5 - 4 (preferably 1.0 - 3.0) h | CN(C)CCc1c[nH]c2ccc(CS(=O)(=O)N3CCCC3)cc12 [Almotriptan, I-[[[3-[2-(dimethylamino)ethyl]-1H-indole-5-yl]methyl]sulfonyl]pyrrolidine] | –
1.0 - 3 (preferably 1.5 - 2.0) h | CN1CCC[C@@H]1Cc1c[nH]c2ccc(CCS(=O)(=O)c3ccccc3)cc12 [Eletriptan, (R)-3-[(I-Methyl-2-pyrrolidinyl)methyl]-5-[2-(phenylsulfonyl)ethyl]-1H-indole] | –
1.5 - 3 (preferably 2 - 2.5) h | CNS(=O)(=O)Cc1ccc2[nH]cc(CCN(C)C)c2c1 [Sumatriptan, 3-[2-(dimethylamino)ethyl]-N-methyl-1H-indole-5-methanesulfonamide] | –
0.5 - 4 (preferably 1.0 - 3.0) h | CN[C@@H]1CCc2[nH]c3ccc(C(N)=O)cc3c2C1 [Frovatriptan, (+)-(R)-3-methylamino-6-carboxamido-1,2,3,4-tetrahydrocarbazole] | –

Further lines, the compound ahead of its results:

Compound | Tmax after oral administration [1] | other results
4-(5-Methoxy-4-pyrimidinyl)-1-[3-[5-[[(methylamino)-sulfonyl]methyl]-1H-indole-3-yl]propyl]piperazine [Avitriptan] | – | Tmax after oral administration (in vivo, po): 0.25 - 1 (preferably 0.5) h
CN(C)CCc1c[nH]c2ccc(Cn3cncn3)cc12 [Rizatriptan, N,N-dimethyl-5-(IH-1,2,4-triazol-l-ylmethyl)-1H-indole-3-ethanamine] | 0.5 - 3 (preferably 1.0 - 2.5) h | –
N-methyl-3-(1-methyl-4-piperidinyl)-1H-indole-5-ethanesulfonamide [Naratriptan] | – | Tmax after oral administration (in vivo, po): 1.5 - 4.5 (preferably 2.0 - 4.0) h
CN(C)CCc1c[nH]c2ccc(C[C@H]3COC(=O)N3)cc12 [zolmitriptan, (S)-(4)-[[3-[2-(dimethylamino)ethyl]-1H-indole-5yl]methyl]-2-oxazolidinone] | 1 to 4 h | Tmax after oral administration (oral administration, during attack): 2.5 to 3 h; Tmax after oral administration (oral administration, migraine free period): 1 to 2 h
